Patent US20250101436A1, “APTAMERS AND SMALL MOLECULE LIGANDS” (MeiraGTx UK II Limited, priority 2021, published 2025)

Each substance was assayed on luciferase gene expression in HEK 293 cells in response to Comp. 004 (assay: Screen of riboswitch constructs with 12C6-1 variant aptamers (libraries N1-N5) against Comp. 004, luciferase in HEK 293 cells). Conditions: library N1 (J2-4), HEK 293, 25 M [sic] Comp. 004.
Format: cell-based, human
From the text: Cloning of riboswitch constructs containing 12C6-1 variant aptamer sequences: 12C6-1 aptamer sequence was used as template, and nucleobases were randomized at certain position in the sequence. Aptamers incorporating random mutagenesis were synthesized by Integrated DNA Technologies, Inc. Golden Gate cloning strategy (New England Biolabs, NEB) was used to clone the synthesized aptamer sequences into intron-exon-intron cassette to replace the 12C6-1 aptamer in the Luci-12C6-1 riboswitch construct, generating riboswitch constructs containing variant aptamer sequences.
To further improve the riboswitch activity in responding to Comp. 004 and related compounds, the aptamer sequence 12C6-1 was subject to mutagenesis to generate aptamer variants, and the riboswitches containing the variant aptamers were screened against Comp. 004 for the ones that have improved dynamic range of induced gene expression (the fold induction), in comparison with the fold induction by parental riboswitch construct Luci-12C6-1. […] These loop or junction region alone or together with stem region in proximity were chosen for random mutagenesis to generate riboswitches with re-engineered aptamer sequences with improved activity.
Five aptamer libraries N1, N2, N3, N4 and N5 were generated by randomizing nucleotides at positions in J2-4, J2-3/J3-3a/J3a-2/P3, L3a, J4-5/J5-4/P4 and L5 regions of the parent 12C6-1 sequence, respectively (see FIGS. 3a and 3b). Single bacterial colonies were picked and plasmids containing variant riboswitch constructs were screened in HEK 293 cells for improved gene regulation activity in response to 25 µM Comp. 004 as compared to parent riboswitch construct Luci-12C6-1.

| Substance | Fold (induction of luciferase gene expression) [fold] |
| --- | --- |
| N1_2E6 (CTGGGGAGTCCTTCATGCGGGGC; chemistry not given here) | 30.39 |
| N1_2E11 (CTGGGGAGTCCTTCATGCGGGGC; chemistry not given here) | 15.45 |
| N1_2D9 (CTGGGGAGTCCTTCATGCGGGGC; chemistry not given here) | 9.74 |
| N1_2D5 (CTGGGGAGTCCTTCATGCGGGGC; chemistry not given here) | 35.71 |
| N1_2H11 (CTGGGGAGTCCTTCATGCGGGGC; chemistry not given here) | 2.83 |
| N1_2F6 (CTGGGGAGTCCTTCATGCGGGGC; chemistry not given here) | 185.92 |
| N1_2H7 (CTGGGGAGTCCTTCATGCGGGGC; chemistry not given here) | 1.16 |
| N1_2G9 (CTGGGGAGTCCTTCATGCGGGGC; chemistry not given here) | 30.93 |

Same assay, conditions: library N2 variant aptamers (J2-3, P3-J3-3a, J3a-2 randomized) of 12C6-1 in riboswitch constructs; in response to Comp. 004; HEK 293 cells

| Substance | Fold (induction of luciferase gene expression) [fold] |
| --- | --- |
| N2_2F7 (DNA CTGGGGAGTCCTTCATGC; chemistry not given here) | 1.0 |
| N2_2E2 (DNA CTGGGGAGTCCTTCATGC; chemistry not given here) | 1.1 |
| N2_2C6 (CTGGGGAGTCCTTCATGC; chemistry not given here) | 0.9 |
| N2_2E4 (DNA CTGGGGAGTCCTTCATGC; chemistry not given here) | 0.7 |
| N2_2H8 (CTGGGGAGTCCTTCATGC; chemistry not given here) | 1.4 |
| N2_2B8 (CTGGGGAGTCCTTCATGC; chemistry not given here) | 1.1 |
| N2_2D2 (DNA CTGGGGAGTCCTTCATGC; chemistry not given here) | 1.1 |
| N2_2A11 (CTGGGGAGTCCTTCATGC; chemistry not given here) | 1.1 |
| N2_2G1 (DNA CTGGGGAGTCCTTCATGC; chemistry not given here) | 1.7 |
| N2_2G6 (DNA CTGGGGAGTCCTTCATGC; chemistry not given here) | 1.1 |
| N2_2F4 (DNA CTGGGGAGTCCTTCATGC; chemistry not given here) | 1.2 |
| N2_2B7 (CTGGGGAGTCCTTCATGC; chemistry not given here) | 1.2 |
| N2_2C12 (CTGGGGAGTCCTTCATGC; chemistry not given here) | 1.1 |
| N2_2F12 (DNA CTGGGGAGTCCTTCATGC; chemistry not given here) | 1.0 |
| N2_2H3 (CTGGGGAGTCCTTCATGC; chemistry not given here) | 1.0 |
| N2_2D1 (CTGGGGAGTCCTTCATGC; chemistry not given here) | 1.1 |
| N2_2G2 (DNA CTGGGGAGTCCTTCATGC; chemistry not given here) | 1.3 |
| N2_2G10 (DNA CTGGGGAGTCCTTCATGC; chemistry not given here) | 1.0 |
| N2_2C3 (CTGGGGAGTCCTTCATGC; chemistry not given here) | 1.1 |
| N2_2F10 (DNA CTGGGGAGTCCTTCATGC; chemistry not given here) | 1.1 |

Same assay, conditions: library N5 variant aptamers (L5, X16-X21 randomized) of 12C6-1 in riboswitch constructs; in response to Comp. 004 treatment; HEK 293 cells

| Substance | Fold (induction of luciferase gene expression) [fold] |
| --- | --- |
| N5_12E5 (CTGGGGAGTCCT; chemistry not given here) | 1898.6 |
| N5_2F12 (CTGGGGAGTCCT; chemistry not given here) | 1100.0 |
| N5_1H6 (CTGGGGAGTCCT; chemistry not given here) | 654.9 |
| N5_4D7 (CTGGGGAGTCCT; chemistry not given here) | 588.1 |
| N5_1F9 (CTGGGGAGTCCT; chemistry not given here) | 685.1 |
| N5_12F4 (CTGGGGAGTCCT; chemistry not given here) | 2096.2 |
| N5_6B6 (CTGGGGAGTCCT; chemistry not given here) | 659.7 |
| N5_1E6 (CTGGGGAGTCCT; chemistry not given here) | 365.1 |
| N5_1F10 (CTGGGGAGTCCT; chemistry not given here) | 1071.3 |
| N5_1G11 (CTGGGGAGTCCT; chemistry not given here) | 789.0 |
| N5_1D10 (CTGGGGAGTCCT; chemistry not given here) | 762.7 |
| N5_5C4 (CTGGGGAGTCCT; chemistry not given here) | 1235.2 |
| N5_1C5 (CTGGGGAGTCCT; chemistry not given here) | 966.1 |
| N5_1F1 (CTGGGGAGTCCT; chemistry not given here) | 557.2 |
| N5_1E5 (CTGGGGAGTCCT; chemistry not given here) | 681.3 |
| N5_7A9 (CTGGGGAGTCCT; chemistry not given here) | 692.6 |
| N5_9G7 (DNA CTGGGGAGTCCT; chemistry not given here) | 937.7 |
| N5_7E12 (DNA CTGGGGAGTCCT; chemistry not given here) | 933.3 |
| N5_1D6 (CTGGGGAGTCCT; chemistry not given here) | 684.9 |
| N5_11F4 (CTGGGGAGTCCT; chemistry not given here) | 1230.1 |
| N5_9E6 (DNA CTGGGGAGTCCT; chemistry not given here) | 1020.7 |

| Substance | Fold (induction of luciferase gene expression) [fold] |
| --- | --- |
| N5_7C4 (DNA CTGGGGAGTCCT; chemistry not given here) | 1363.2 |
| N5_11D10 (CTGGGGAGTCCT; chemistry not given here) | 1719.3 |
| N5_7E9 (DNA CTGGGGAGTCCT; chemistry not given here) | 955.3 |
| N5_1D4 (CTGGGGAGTCCT; chemistry not given here) | 522.9 |
| N5_1F6 (CTGGGGAGTCCT; chemistry not given here) | 247.6 |
| N5_1D1 (CTGGGGAGTCCT; chemistry not given here) | 321.6 |
| N5_7G7 (DNA CTGGGGAGTCCT; chemistry not given here) | 952.9 |
| N5_11G11 (CTGGGGAGTCCT; chemistry not given here) | 1186.4 |
| N5_8F3 (DNA CTGGGGAGTCCT; chemistry not given here) | 862.0 |
| N5_1B9 (CTGGGGAGTCCT; chemistry not given here) | 941.5 |
| N5_7E7 (DNA CTGGGGAGTCCT; chemistry not given here) | 870.2 |
| N5_1G6 (CTGGGGAGTCCT; chemistry not given here) | 1311.6 |
| N5_12G2 (CTGGGGAGTCCT; chemistry not given here) | 1074.1 |
| N5_7F8 (DNA CTGGGGAGTCCT; chemistry not given here) | 1279.7 |
| N5_6E1 (CTGGGGAGTCCT; chemistry not given here) | 725.2 |
| N5_1E1 (CTGGGGAGTCCT; chemistry not given here) | 566.4 |
| N5_1C11 (CTGGGGAGTCCT; chemistry not given here) | 484.2 |
| N5_9E12 (DNA CTGGGGAGTCCT; chemistry not given here) | 1458.4 |
| N5_1C2 (CTGGGGAGTCCT; chemistry not given here) | 687.2 |
| N5_7F10 (DNA CTGGGGAGTCCT; chemistry not given here) | 572.7 |
| N5_7D11 (DNA CTGGGGAGTCCT; chemistry not given here) | 759.2 |
